Results on 30 compounds are retold here after patent US6420401B1, “1,2,5, thiadiazolidin-3-one 1,1-dioxide derivatives” (Wichita State University, priority 1997, dated 2002).

SMILES strings stand for the structures.

What all share (type): biochemical
The target of assay [1] is T1, human leukocyte elastase (HLE) (Homo sapiens, UniProt P08246).
T1 sequence (P08246 30-267): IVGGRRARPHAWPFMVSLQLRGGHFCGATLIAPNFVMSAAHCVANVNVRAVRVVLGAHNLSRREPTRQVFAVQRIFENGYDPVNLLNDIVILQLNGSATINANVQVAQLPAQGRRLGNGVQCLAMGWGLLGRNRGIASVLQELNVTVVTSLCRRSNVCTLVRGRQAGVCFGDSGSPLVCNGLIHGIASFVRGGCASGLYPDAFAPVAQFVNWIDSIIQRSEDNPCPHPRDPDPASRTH
In words: Inactivation of human leukocyte elastase, progress curve method. On the procedure: Absorbance was recorded at 410 nm for reaction solutions containing 20.0 nM HLE, 1.00 mM MeOSuc-Ala-Ala-Pro-Val p-nitroanilide, and the indicated concentrations of inhibitor in 0.1 M HEPES buffer, pH 7.25, and 3.6% dimethyl sulfoxide. The temperature was maintained at 25° C., and the reactions were initiated by the addition of enzyme.
(Table 4). Absorbance was monitored at 410 nm for reaction solutions containing 20.0 nM HLE, 1.00 mM MeOSuc-Ala-Ala-Pro-Val p-nitroanilide, and the indicated concentrations of inhibitor in 0.1 M HEPES buffer, pH 7.25, and 3.6% dimethyl sulfoxide. The temperature was maintained at 25° C., and the reactions were initiated by the addition of enzyme.
(§1) An in vitro assay was used to screen compounds of the invention for the ability to reduce or inhibit serine protease activity. The human leukocyte elastase (HLE), cathepsin G (Cat G) and proteinase 3 (PR 3) assays have each been described in detail, Groutas et al. (1997) Biochemistry 36, 4739-4750. Chymase was assayed using N-succinyl Ala-Ala-Pro-Phe p-nitroanilide and 0.45 M Tris buffer/1.8 M NaCl, pH 8.03, Schechter, N. M. et al. (1993) J. Biol. Chem. 268, 23626-23633.
(§2) The rates of inactivation of HLE, Cat G or PR3 by each compound (or library of compounds) were determined by the progress curve method [Morrison, J. F. & Walsh, C. T. (1988) Adv. Enzymol. 61, 201-301]. Typical progress curves using a representative sulfonamide or heterocyclic sulfide inhibitor are illustrated in FIGS. 1 and 2, respectively. The apparent second-order rate constants kinact/kI M^−1 s^−1, the magnitude of which serves as an index of inhibitory potency, were determined by the progress curve method and are listed in Table 5 (sulfonamides), Table 6 (heterocyclic sulfides), Table 3 (oxa acids) , Tables 7 & 8 (libraries 1-30), and Table 9 (reversible inhibitors).

For assay [2], the target named is T2, human leukocyte cathepsin G (Cat G) (Homo sapiens, UniProt P08311).
T2 sequence (P08311 21-244): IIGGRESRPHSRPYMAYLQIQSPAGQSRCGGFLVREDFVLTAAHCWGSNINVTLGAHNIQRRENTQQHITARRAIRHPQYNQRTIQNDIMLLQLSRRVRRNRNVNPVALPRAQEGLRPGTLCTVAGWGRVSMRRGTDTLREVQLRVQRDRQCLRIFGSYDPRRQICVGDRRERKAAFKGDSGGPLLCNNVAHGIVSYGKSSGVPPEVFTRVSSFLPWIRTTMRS
In words: Inactivation of cathepsin G, progress curve method. How it is done: as §1, §2
A solution of (L)-4,5-dibenzyl-1,2,5-thiadiazolidin-3-one 1,1 dioxide (0.5 g; 1.58 mmol) and ethyl α-bromofluoroacetate (0.44 g; 2.37 mmol) in dry dimethyl formamide (3 mL) was treated with 60% sodium hydride ([…]; 1.58 mmol). The reaction mixture was kept at 55° C. for 1 h using a water bath. The solvent was removed in vacuo and the product was dissolved in ethyl acetate (35 mL) and washed with water (3×10 mL), 5% sodium bicarbonate (2×10 mL) and dried over anhydrous sodium sulfate. Evaporation of the solvent yielded a crude product (0.56 g) which was purified by flash chromatography using silica gel and a hexane/methylene chloride gradient. The product K-1a (0.15 g; 25% yield) was screened against human leukocyte cathepsin G using the progress curve method (kinact/Ki>10,000 M^−1 s^−1). [drawing 45] [drawing 46] [drawing 47] [drawing 48] [drawing 49]

For assay [3], the target named is T3, Human Leukocyte Proteinase 3 (PR 3) (Homo sapiens, UniProt P24158).
T3 sequence (P24158 28-248): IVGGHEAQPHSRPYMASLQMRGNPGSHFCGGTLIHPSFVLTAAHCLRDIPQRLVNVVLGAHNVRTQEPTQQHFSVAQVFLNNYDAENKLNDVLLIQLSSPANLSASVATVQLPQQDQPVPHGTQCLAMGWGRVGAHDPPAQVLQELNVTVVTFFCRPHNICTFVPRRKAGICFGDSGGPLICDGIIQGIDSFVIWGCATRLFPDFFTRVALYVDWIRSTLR
In words: Inactivation of proteinase 3, progress curve method. How it is done: as §1, §2

[4] abbreviates: Table 5, sulfonamides 31-49, apparent second-order rate constant.
Where [5] appears, read: Table 6, heterocyclic sulfides 53-69.

`CC(C)COC(=O)N(CN1C(=O)C(CC(C)C)N(C)S1(=O)=O)S(C)(=O)=O` (centres unmarked) [Compound 31]: in assay [1] (setting [4]), the kinact/KI (as a rule, the maximal inactivation rate divided by the concentration that gives half of it) came to 11900 M⁻¹ s⁻¹. The same measure, in the same setting: with `CCCCOC(=O)N(CN1C(=O)C(CC(C)C)N(C)S1(=O)=O)S(C)(=O)=O` (centres unmarked) [Compound 32] the figure was 40500 M⁻¹ s⁻¹; with `CC(C)CC1C(=O)N(CN(C(=O)OCc2ccccc2)S(C)(=O)=O)S(=O)(=O)N1C` (centres unmarked) [Compound 33], 22000 M⁻¹ s⁻¹. Take `CCCCOC(=O)N(CN1C(=O)C(Cc2ccccc2)N(Cc2ccccc2)S1(=O)=O)S(C)(=O)=O` (centres unmarked) [Compound 38]: the kinact/KI in assay [1] (setting [4]) amounted to 1970 M⁻¹ s⁻¹; in assay [2] (Table 5, sulfonamides 31-49), 5380 M⁻¹ s⁻¹.

For the compound `CC(C)CC1C(=O)N(CN(C(=O)c2ccccc2)S(C)(=O)=O)S(=O)(=O)N1C` (centres unmarked) [Compound 39], in assay [1] (setting [4]), the second-order inactivation constant (kinact/KI) worked out at 71000 M⁻¹ s⁻¹.

On to `CC(C)CC1C(=O)N(CN(C(=O)Cc2ccccc2)S(C)(=O)=O)S(=O)(=O)N1C` (centres unmarked) [Compound 40], for which the kinact/KI in assay [1] (setting [4]) was 28300 M⁻¹ s⁻¹; in assay [3] (Table 5, sulfonamides 31-49), 10100 M⁻¹ s⁻¹; in assay [2] (Table 5, sulfonamides 31-49) it was 220 M⁻¹ s⁻¹. Turning to `CC(C)CC1C(=O)N(CN(C(=O)CNC(=O)OC(C)(C)C)S(C)(=O)=O)S(=O)(=O)N1C` (centres unmarked) [Compound 42], the kinact/KI in assay [1] (setting [4]) stood at 140000 M⁻¹ s⁻¹; in assay [3] (Table 5, sulfonamides 31-49), 27400 M⁻¹ s⁻¹. For `CC(C)CC1C(=O)N(CN(C(=O)CNC(=O)OCc2ccccc2)S(C)(=O)=O)S(=O)(=O)N1C` (centres unmarked) [Compound 43], the kinact/KI came to 229000 M⁻¹ s⁻¹ in assay [1] (setting [4]); 27400 M⁻¹ s⁻¹ in assay [3] (Table 5, sulfonamides 31-49); 60 M⁻¹ s⁻¹ in assay [2] (Table 5, sulfonamides 31-49). With `CC(C)CC1C(=O)N(CN(C(=O)CNC(=O)OC(C)(C)C)S(C)(=O)=O)S(=O)(=O)N1Cc1ccccc1` (centres unmarked) [Compound 44], the kinact/KI in assay [1] (setting [4]) is 149000 M⁻¹ s⁻¹. In the case of `CC(C)CC1C(=O)N(CN(C(=O)CNC(=O)OCc2ccccc2)S(C)(=O)=O)S(=O)(=O)N1Cc1ccccc1` (centres unmarked) [Compound 45], the kinact/KI in assay [1] (setting [4]) was 134000 M⁻¹ s⁻¹; in assay [3] (Table 5, sulfonamides 31-49), 30100 M⁻¹ s⁻¹; in assay [2] (Table 5, sulfonamides 31-49) it was 70 M⁻¹ s⁻¹. In the same order, the values of `CCOC(=O)CNC(=O)N(CN1C(=O)C(CC(C)C)N(Cc2ccccc2)S1(=O)=O)S(C)(=O)=O` (centres unmarked) [Compound 48] are 14100 M⁻¹ s⁻¹, 5190 M⁻¹ s⁻¹ and 70 M⁻¹ s⁻¹. For the compound `CC(C)CC1C(=O)N(CN2C(=O)C(CC(C)C)N(Cc3ccccc3)S2(=O)=O)S(=O)(=O)N1Cc1ccccc1` (centres unmarked) [Compound 49], the kinact/KI in assay [1] (setting [4]) came to 850 M⁻¹ s⁻¹.

As to `CC(C)CC1C(=O)N(CSc2nc(-c3ccccc3)no2)S(=O)(=O)N1C` (centres unmarked) [Compound 53], the kinact/KI in assay [1] (setting [5]) was 153000 M⁻¹ s⁻¹.

In the case of `CC(C)CC1C(=O)N(CSc2nc3ccccc3s2)S(=O)(=O)N1C` (centres unmarked) [Compound 54], the kinact/KI in assay [1] (setting [5]) came to 67300 M⁻¹ s⁻¹. Regarding `CC(C)CC1C(=O)N(CSc2nc3ccccc3o2)S(=O)(=O)N1Cc1ccccc1` (centres unmarked) [Compound 55], the kinact/KI in assay [1] (setting [5]) was determined as 174000 M⁻¹ s⁻¹; in assay [3] (setting [5]), 9130 M⁻¹ s⁻¹; in assay [2] (setting [5]), 60 M⁻¹ s⁻¹. In the case of `CC(C)CC1C(=O)N(CSc2nc(-c3ccccc3)c(-c3ccccc3)o2)S(=O)(=O)N1Cc1ccccc1` (centres unmarked) [Compound 56], in assay [1] (setting [5]), the kinact/KI is 560 M⁻¹ s⁻¹. Consider `CC(C)CC1C(=O)N(CSc2nc3ccccc3o2)S(=O)(=O)N1C` (centres unmarked) [Compound 57], for which the kinact/KI worked out at 80600 M⁻¹ s⁻¹ in assay [1] (setting [5]), 10400 M⁻¹ s⁻¹ in assay [3] (setting [5]) and 30 M⁻¹ s⁻¹ in assay [2] (setting [5]). As to `CC(C)CC1C(=O)N(CSc2nnc(-c3ccccc3)o2)S(=O)(=O)N1Cc1ccccc1` (centres unmarked) [Compound 58], in assay [1] (setting [5]), the kinact/KI was 168000 M⁻¹ s⁻¹. In the case of `CC(C)CC1C(=O)N(CSc2nc3ccccc3s2)S(=O)(=O)N1Cc1ccccc1` (centres unmarked) [Compound 59], the kinact/KI in assay [1] (setting [5]) worked out at 22400 M⁻¹ s⁻¹. As for `CC(C)CC1C(=O)N(CSc2nc(-c3ccccc3)c(-c3ccccc3)o2)S(=O)(=O)N1C` (centres unmarked) [Compound 60], the kinact/KI in assay [1] (setting [5]) was found to be 1540 M⁻¹ s⁻¹. Consider `CC(C)CC1C(=O)N(CSc2nnc(-c3ccccc3)o2)S(=O)(=O)N1C` (centres unmarked) [Compound 61], for which the kinact/KI in assay [1] (setting [5]) stood at 25300 M⁻¹ s⁻¹. For the compound `CC(C)CC1C(=O)N(CSc2nc(-c3ccccc3)no2)S(=O)(=O)N1Cc1ccccc1` (centres unmarked) [Compound 62], in assay [1] (setting [5]), the kinact/KI is 67800 M⁻¹ s⁻¹. Still for that read-out and setting: with `CC(C)CC1C(=O)N(CSc2nc3cc(-c4ccccc4)ccc3o2)S(=O)(=O)N1C` (centres unmarked) [Compound 63] the figure was 22600 M⁻¹ s⁻¹. Take `CC(C)CC1C(=O)N(CSc2nc3cc(-c4ccccc4)ccc3o2)S(=O)(=O)N1Cc1ccccc1` (centres unmarked) [Compound 64]: the “kinact/KI HLE” value in assay [1] (setting [5]) is “inactive”. Further, the figures for the kinact/KI in assay [3] (setting [5]) and in assay [2] (setting [5]) were 1090 M⁻¹ s⁻¹ and 50 M⁻¹ s⁻¹, respectively. As for `CN1C(Cc2ccccc2)C(=O)N(CSc2nnc(-c3ccccc3)o2)S1(=O)=O` (centres unmarked) [Compound 65], the “kinact/KI HLE” value in assay [1] (setting [5]) was “inactive”. Also, the kinact/KI in assay [2] (setting [5]) stood at 490 M⁻¹ s⁻¹. Regarding `CN1C(Cc2ccccc2)C(=O)N(CSc2nc3ccccc3o2)S1(=O)=O` (centres unmarked) [Compound 66], the kinact/KI in assay [2] (setting [5]) was 430 M⁻¹ s⁻¹. Same read-out and setting: for `O=C1C(Cc2ccccc2)N(Cc2ccccc2)S(=O)(=O)N1CSc1nc2ccccc2o1` (centres unmarked) [Compound 67] the value was 17100 M⁻¹ s⁻¹; for `O=C1C(Cc2ccccc2)N(Cc2ccccc2)S(=O)(=O)N1CSc1nnc(-c2ccccc2)o1` (centres unmarked) [Compound 68], 17500 M⁻¹ s⁻¹; for `Nc1ccc2nc(SCN3C(=O)C(Cc4ccccc4)N(Cc4ccccc4)S3(=O)=O)oc2c1` (centres unmarked) [Compound 69], 15700 M⁻¹ s⁻¹.

For the compound `CCOC(=O)C(F)N1C(=O)C(Cc2ccccc2)N(Cc2ccccc2)S1(=O)=O` (centres unmarked) [Compound K-1a], the kinact/Ki in assay [2] (human leukocyte cathepsin G, progress curve method) is given as > 10,000 M^−1 s^−1.
